We go through ten molecules from ChEMBL document CHEMBL1201862, “PubChem BioAssay data set” (2004).

Some test systems named below: T47D; COLO 205; EKVX; SF-268; SNB-19; 786-0; SN12C; OVCAR-4; NCI-H23; Hs-578T; SK-MEL-2; HCC 2998; RPMI-8226; NCI-H522; UACC-62; HT-29; MCF7; MOLT-4; K562; SF-539.
What all share (test): growth of human tumour cells (NCI), 48 h

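All cell lines were grown in 96-well plates and treated with compound for 48 hours. GI50 = concentration required for 50% inhibition of growth.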 The source made the active and inactive calls. Cut-off read from the data, not from the text of the source: active = GI50 up to about 1.1 µM and inactive = higher.

For the molecule `COc1cccc(C2CC(C)(O)Oc3cc4c(cc32)OCO4)c1` (stereo not given), the GI50 was 27.8 µM (inactive) in the test with T47D; 20.7 µM (inactive) with COLO 205; 36.1 µM (inactive) with EKVX; 30.6 µM (inactive) in the test on SF-268; 32.6 µM (inactive) with SNB-19; 33.7 µM (inactive) in the test on 786-0. Further, the GI50 was 27.3 µM (inactive) with SN12C; 24.2 µM (inactive) with OVCAR-4; 28.1 µM (inactive) with NCI-H23; 16.4 µM (inactive) in the test with Hs-578T; 9.53 µM (inactive) with SK-MEL-2; 27.5 µM (inactive) with HCC 2998. The GI50 with RPMI-8226 is 16.1 µM (inactive); with NCI-H522, 7.21 µM (inactive); in the test with UACC-62 it was 14.4 µM (inactive); in the test with HT-29, 7.26 µM (inactive); with MCF7 it was 17.9 µM (inactive); with MOLT-4 it was 8.97 µM (inactive). In addition, in the test with K562, the GI50 is 19.5 µM (inactive).

For `COc1ccc(C2NC3=C(CCCC3)C3(C#N)C(=O)N=C(N)C23C#N)cc1` (stereo not given), the GI50 in the test with T47D, in the test with COLO 205, in the test with EKVX, in the test on SF-268, in the test on SNB-19 and in the test on 786-0 was > 100 µM (inactive) throughout. The GI50 in the test on SN12C, with OVCAR-4, with NCI-H23, in the test with Hs-578T, in the test on SK-MEL-2 and with HCC 2998 was > 100 µM (inactive) in each case. Also, the GI50 in the test with RPMI-8226, in the test on NCI-H522, with UACC-62, with HT-29, in the test on MCF7 and in the test on MOLT-4 was > 100 µM (inactive) in each case. Besides, in the test on K562, the GI50 is > 100 µM (inactive).

As for `[N-]=[N+]=CC(=O)C1CCCN1C(=O)c1ccccc1` (stereo not given), the GI50 in the test on T47D, with COLO 205, in the test with EKVX, with SF-268, in the test on SNB-19 and in the test with 786-0 was > 10 µM (inactive) each time. Further, the GI50 in the test with SN12C, in the test with OVCAR-4, in the test on NCI-H23, in the test on Hs-578T, in the test with SK-MEL-2 and with HCC 2998 was > 10 µM (inactive) in each case. For the same molecule, the GI50 in the test with RPMI-8226, with UACC-62, in the test with HT-29, in the test on MCF7, in the test with SF-539 and in the test with MOLT-4 was > 10 µM (inactive) throughout. The GI50 in the test with K562 is > 10 µM (inactive).

`O=C1NN(Cc2ccccc2)C(=O)N2CCC[C@@H]12`: the GI50 in the test on T47D, in the test on COLO 205, in the test with EKVX, in the test on SF-268, in the test with SNB-19 and in the test on 786-0 was > 100 µM (inactive) in each case. Further, the GI50 with SN12C, with OVCAR-4, in the test with NCI-H23, in the test on Hs-578T, in the test with SK-MEL-2 and in the test on HCC 2998 was > 100 µM (inactive) in each case. In addition, the GI50 in the test with UACC-62, in the test with HT-29, in the test on MCF7, in the test on SF-539 and with MOLT-4 was > 100 µM (inactive) throughout.

As to `Sc1nnc(Cc2ccc(Cl)cc2)[nH]1`, the GI50 was 29.4 µM (inactive) in the test with T47D; 48 µM (inactive) in the test on COLO 205; 47.1 µM (inactive) with EKVX; 71 µM (inactive) in the test with SNB-19; 61.4 µM (inactive) with 786-0; 78.2 µM (inactive) in the test with SN12C. For the same molecule, the GI50 in the test on OVCAR-4 is 71.9 µM (inactive); with NCI-H23, 26.6 µM (inactive); in the test with Hs-578T, 16.4 µM (inactive); in the test with SK-MEL-2, > 100 µM (inactive); with HCC 2998, > 100 µM (inactive); in the test with UACC-62 it was 66.7 µM (inactive). In addition, the GI50 in the test on HT-29 was > 100 µM (inactive); in the test on MCF7 it was 51.9 µM (inactive); with SF-539 it was 66.4 µM (inactive); in the test on MOLT-4 it was 50.2 µM (inactive); with K562, 48.8 µM (inactive).

On to `CC/C=C\C/C=C\C/C=C\CCCCCCCC(=O)OC(COC(=O)CCCCCCCCCCCCCCCCC)COC1OC(CO)C(O)C(O)C1O` (stereo not given), for which the GI50 is > 25 µM (inactive) with T47D; > 25 µM (inactive) in the test on COLO 205; 4.7 µM (inactive) in the test with EKVX; > 25 µM (inactive) in the test on SF-268; > 25 µM (inactive) in the test with SNB-19; > 25 µM (inactive) with 786-0. Moreover, the GI50 was > 25 µM (inactive) with SN12C; > 25 µM (inactive) with OVCAR-4; > 25 µM (inactive) with NCI-H23; 2.59 µM (inactive) in the test on Hs-578T; > 25 µM (inactive) in the test with SK-MEL-2; > 25 µM (inactive) with HCC 2998. Besides, the GI50 in the test with RPMI-8226 was 8.57 µM (inactive); with NCI-H522, 9.53 µM (inactive); in the test on UACC-62, > 25 µM (inactive); with HT-29, 22.8 µM (inactive); with MCF7, > 25 µM (inactive); with MOLT-4 it was > 25 µM (inactive). Besides, the GI50 in the test on K562 was 18.6 µM (inactive).

Take `CC1(C)CC[C@]2(C(=O)O)CC[C@]3(C)C(=CC[C@@H]4[C@@]5(C)CC[C@H](OC6OC(CO)C(O)C(O)C6OC6OC(CO)C(O)C(O)C6O)C(C)(C)[C@@H]5CC[C@]43C)[C@@H]2C1` (stereo not given in full): the GI50 in the test on T47D is 21.3 µM (inactive); in the test with COLO 205, 15.4 µM (inactive); in the test on EKVX it was 18.5 µM (inactive); in the test with SF-268, 17.2 µM (inactive); with SNB-19, 18.3 µM (inactive); with 786-0 it was 16.6 µM (inactive). The GI50 with SN12C was 18.2 µM (inactive); in the test on OVCAR-4 it was 16.8 µM (inactive); in the test on NCI-H23 it was 24.9 µM (inactive); with Hs-578T, 24.2 µM (inactive); in the test with SK-MEL-2 it was 0.0509 µM (active); in the test on HCC 2998, 20.8 µM (inactive). Moreover, the GI50 was 23.2 µM (inactive) in the test with RPMI-8226; 20.6 µM (inactive) with NCI-H522; 19.3 µM (inactive) in the test with UACC-62; 15.8 µM (inactive) in the test with HT-29; 19.6 µM (inactive) in the test on MCF7; 22.5 µM (inactive) in the test on MOLT-4. In the test on K562, the GI50 was 19.8 µM (inactive).

Turning to `Fc1cccc2nc(-c3ccccc3)cc(OCc3ccccc3)c12`, the GI50 with T47D is 89.3 µM (inactive); with COLO 205 it was > 100 µM (inactive); in the test with EKVX it was 20.8 µM (inactive); in the test on SF-268, > 100 µM (inactive); in the test with SNB-19 it was > 100 µM (inactive); in the test with 786-0, > 100 µM (inactive). The GI50 with SN12C, in the test with OVCAR-4, with NCI-H23, in the test with Hs-578T, with SK-MEL-2 and with HCC 2998 was > 100 µM (inactive) throughout. For the same molecule, the GI50 is > 100 µM (inactive) in the test on RPMI-8226; 71.8 µM (inactive) with NCI-H522; > 100 µM (inactive) with UACC-62; > 100 µM (inactive) in the test on HT-29; 59.7 µM (inactive) in the test on MCF7; > 100 µM (inactive) in the test with MOLT-4. Moreover, in the test with K562, the GI50 is > 100 µM (inactive).

Regarding `O=C1O[C@H]2[C@@H]3OC(=O)c4cc(O)c(O)c(O)c4-c4c(cc(O)c(O)c4O)C(=O)OC[C@H]2O[C@@H](OC(=O)c2cc(O)c(O)c(O)c2)[C@@H]3OC(=O)c2cc(O)c(O)c3c2[C@@H]2C1=CC(=O)C(O)(O)C2(O)O3` (stereo not given in full), the GI50 in the test with T47D is 26.8 µM (inactive); in the test on COLO 205, 25.9 µM (inactive); in the test on EKVX, 16.1 µM (inactive); in the test with SF-268, 74.1 µM (inactive); in the test with SNB-19 it was 76.9 µM (inactive); in the test with 786-0 it was 18.1 µM (inactive). In addition, the GI50 with SN12C is 16.9 µM (inactive); with OVCAR-4, 15.2 µM (inactive); in the test with NCI-H23, 33.1 µM (inactive); in the test with Hs-578T, 40.4 µM (inactive); with SK-MEL-2, 29.9 µM (inactive); in the test with HCC 2998, 21 µM (inactive). Further, the GI50 in the test with RPMI-8226 was 38.3 µM (inactive); in the test on NCI-H522, 28.1 µM (inactive); in the test on UACC-62, 30.1 µM (inactive); in the test on HT-29, 16.5 µM (inactive); with MCF7, 25.2 µM (inactive); with MOLT-4, 25.9 µM (inactive). Also, the GI50 with K562 was 29.6 µM (inactive).

`N#Cc1nc2ccccc2nc1N1CCN(c2ccc([N+](=O)[O-])cc2)CC1`: the GI50 in the test on T47D, in the test with COLO 205, in the test on EKVX, in the test on SF-268, with SNB-19 and in the test with 786-0 was > 100 µM (inactive) each time. The GI50 with SN12C, with OVCAR-4, in the test on NCI-H23, with Hs-578T, in the test with SK-MEL-2 and in the test with HCC 2998 was > 100 µM (inactive) throughout. The GI50 in the test on RPMI-8226 was > 100 µM (inactive); with NCI-H522, > 100 µM (inactive); in the test with UACC-62, > 100 µM (inactive); in the test with HT-29 it was > 100 µM (inactive); in the test on MCF7, > 100 µM (inactive); with MOLT-4, 0.106 µM (active).
